Laboratory results: ChEMBL document CHEMBL1201862, “PubChem BioAssay data set” (2004)
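Compound exposure: 48 hours, 5 concentrations, 96-well plates. GI50 marks 50% less growth.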 The source made the active and inactive calls. Rule as the data show it: active = GI50 up to about 1.1 µM and inactive = higher.

Legend:
Assay in all cases: NCI anticancer screen, dose series, 48 h
COLO 205 = system: COLO 205
EKVX = system: EKVX
IGROV-1 = system: IGROV-1
UACC-257 = system: UACC-257
TK-10 = system: TK-10
SK-MEL-5 = system: SK-MEL-5
RPMI-8226 = system: RPMI-8226
NCI-H23 = system: NCI-H23
SR = system: SR
MOLT-4 = system: MOLT-4
UACC-62 = system: UACC-62
OVCAR-3 = system: OVCAR-3
KM12 = system: KM12
SF-539 = system: SF-539
SK-MEL-2 = system: SK-MEL-2
CCRF-CEM = system: CCRF-CEM

Measured: GI50

N=c1n(CC(=O)NC23CC4CC(CC(C4)C2)C3)c2ccccc2n1CC(=O)NC12CC3CC(CC(C3)C1)C2
inactive: COLO 205 1.89 µM | EKVX 2.26 µM | IGROV-1 1.56 µM | UACC-257 1.73 µM | TK-10 1.66 µM | SK-MEL-5 1.82 µM | RPMI-8226 2.21 µM | NCI-H23 1.74 µM | SR 1.87 µM | MOLT-4 2.64 µM | UACC-62 1.96 µM | OVCAR-3 1.88 µM | KM12 1.61 µM | SF-539 1.92 µM | SK-MEL-2 17.2 µM | CCRF-CEM 2.8 µM

O=P1(c2ccccc2)CCCCC1
inactive: COLO 205 > 100 µM | EKVX > 100 µM | IGROV-1 > 100 µM | UACC-257 > 100 µM | TK-10 > 100 µM | SK-MEL-5 > 100 µM | RPMI-8226 > 100 µM | NCI-H23 > 100 µM | SR > 100 µM | MOLT-4 > 100 µM | UACC-62 > 100 µM | OVCAR-3 > 100 µM | KM12 > 100 µM | SF-539 > 100 µM | SK-MEL-2 > 100 µM | CCRF-CEM > 100 µM

Cc1cccc(O)c(=O)c1
inactive: COLO 205 6.24 µM | EKVX 23.6 µM | IGROV-1 37.4 µM | UACC-257 28.3 µM | TK-10 29.2 µM | SK-MEL-5 28.1 µM | RPMI-8226 7.6 µM | SR 15.2 µM | MOLT-4 6.38 µM | UACC-62 11.4 µM | OVCAR-3 11.6 µM | KM12 20.3 µM | SF-539 29.6 µM | CCRF-CEM 3.48 µM

CCOC(=O)c1ccc(-n2c(SCC)nc3sc(C)c(C)c3c2=O)cc1
inactive: COLO 205 > 100 µM | EKVX > 100 µM | IGROV-1 > 100 µM | UACC-257 > 100 µM | TK-10 > 100 µM | SK-MEL-5 > 100 µM | RPMI-8226 > 100 µM | NCI-H23 > 100 µM | SR > 100 µM | MOLT-4 > 10 µM | UACC-62 > 100 µM | OVCAR-3 40.6 µM | KM12 > 100 µM | SF-539 > 100 µM | SK-MEL-2 > 100 µM | CCRF-CEM > 100 µM

CC1(C)CCCC2(C)[C@@H]1CC[C@@]13CC(=O)[C@@](C)(CC[C@@H]21)C3 (some centres not stated)
inactive: COLO 205 > 100 µM | IGROV-1 > 100 µM | UACC-257 32.7 µM | TK-10 > 100 µM | SK-MEL-5 52.5 µM | RPMI-8226 57 µM | NCI-H23 59.7 µM | SR 42.5 µM | MOLT-4 57.4 µM | UACC-62 > 100 µM | OVCAR-3 > 100 µM | KM12 80.5 µM | SF-539 > 100 µM | CCRF-CEM > 100 µM

O=c1c2cc(Br)cc(Br)c2nc(CCCl)n1-c1ccc(O)c([N+](=O)[O-])c1
inactive: COLO 205 21 µM | EKVX 34.5 µM | IGROV-1 22.6 µM | UACC-257 15.1 µM | TK-10 18.5 µM | SK-MEL-5 20.1 µM | RPMI-8226 30.2 µM | NCI-H23 21.7 µM | SR 41.5 µM | MOLT-4 23.8 µM | UACC-62 22.5 µM | OVCAR-3 19.1 µM | KM12 18.5 µM | SF-539 21.4 µM | SK-MEL-2 18.9 µM | CCRF-CEM 20.7 µM

Cc1cc(C)c(C(=O)c2no[n+]([O-])c2C(=O)c2c(C)cc(C)c(Br)c2C)c(C)c1Br
inactive: COLO 205 16.8 µM | EKVX 12 µM | IGROV-1 6.15 µM | UACC-257 > 10 µM | TK-10 9.31 µM | RPMI-8226 10.2 µM | NCI-H23 11.5 µM | SR 4.27 µM | MOLT-4 4.65 µM | UACC-62 10.7 µM | OVCAR-3 13.6 µM | KM12 13.6 µM | SF-539 15.5 µM | SK-MEL-2 14.1 µM | CCRF-CEM 2.59 µM

CCCCCCCCCCCc1nnc(N)o1
inactive: COLO 205 > 100 µM | IGROV-1 > 100 µM | UACC-257 > 100 µM | TK-10 > 100 µM | RPMI-8226 > 100 µM | NCI-H23 > 100 µM | SR > 10 µM | MOLT-4 26.6 µM | UACC-62 > 100 µM | OVCAR-3 > 100 µM | KM12 > 100 µM | SF-539 > 100 µM | SK-MEL-2 > 100 µM

O=C1/C(=C/c2ccc3c(c2)OCCO3)CCC/C1=C\c1ccc2c(c1)OCCO2
inactive: COLO 205 15.6 µM | EKVX 51.3 µM | IGROV-1 32.8 µM | UACC-257 20.1 µM | TK-10 36.9 µM | SK-MEL-5 25.6 µM | RPMI-8226 16.1 µM | SR 23.8 µM | MOLT-4 20.5 µM | UACC-62 23 µM | OVCAR-3 20.3 µM | KM12 6.21 µM | SF-539 19.2 µM | CCRF-CEM 29.9 µM

CC(=O)OCC1OC(n2cccnc2=O)C(OC(C)=O)C1OC(C)=O (configuration not stated)
inactive: COLO 205 > 100 µM | EKVX > 100 µM | UACC-257 > 100 µM | TK-10 > 100 µM | SK-MEL-5 > 100 µM | RPMI-8226 > 100 µM | SR > 100 µM | MOLT-4 > 100 µM | UACC-62 > 100 µM | OVCAR-3 > 100 µM | KM12 > 100 µM | SK-MEL-2 > 100 µM | CCRF-CEM > 100 µM

Cc1ccc2nc3c(Cl)cc(=O)cc-3sc2c1
inactive: COLO 205 18.7 µM | EKVX 22.2 µM | IGROV-1 19.4 µM | UACC-257 20.2 µM | TK-10 28.1 µM | SK-MEL-5 17.1 µM | NCI-H23 > 10 µM | SR > 10 µM | MOLT-4 10.9 µM | UACC-62 15.9 µM | OVCAR-3 3 µM | KM12 > 10 µM | SF-539 3.38 µM | SK-MEL-2 > 10 µM | CCRF-CEM 1.96 µM

N=C(CC(=O)Nc1ccc(Cl)cc1)Nc1ccccc1
inactive: COLO 205 > 100 µM | EKVX > 100 µM | IGROV-1 > 100 µM | UACC-257 > 100 µM | TK-10 > 100 µM | SK-MEL-5 > 100 µM | NCI-H23 > 100 µM | SR > 100 µM | MOLT-4 > 100 µM | UACC-62 > 100 µM | OVCAR-3 > 100 µM | KM12 > 100 µM | SF-539 > 100 µM | SK-MEL-2 > 100 µM | CCRF-CEM > 10 µM

O=C(O)c1ccc2c(c1)C(=O)N(c1ccc(S(=O)(=O)c3ccc(N4C(=O)c5ccc(C(=O)O)cc5C4=O)cc3)cc1)C2=O
inactive: COLO 205 > 100 µM | EKVX > 100 µM | UACC-257 > 100 µM | TK-10 > 100 µM | SK-MEL-5 > 100 µM | RPMI-8226 > 100 µM | NCI-H23 > 100 µM | SR > 100 µM | MOLT-4 > 100 µM | UACC-62 > 100 µM | OVCAR-3 > 100 µM | KM12 > 100 µM | SF-539 > 100 µM | SK-MEL-2 > 100 µM | CCRF-CEM > 100 µM
